Measured values taken from patent publication US11648239B2, “Azophenols as ERG oncogene inhibitors” (The Henry M. Jackson Foundation for the Advancement of …, priority 2015, dated 2023).
One block for each compound: values may come before it.

Key:
[1] = tested on: AR; assay: Inhibition of endogenous AR protein in LNCaP cells (Western blot); format: cell-based; details: ERG negative LNCaP; 0.25 μM and 1 μM; FIG. 4
Protocol: (§1) To investigate whether the azophenol compounds of the invention are selective inhibitors of ERG protein expression, representative azophenol compounds were further tested for its ability to inhibit AR and PSA activity in the following AR positive/ERG negative prostate cancer cell lines: LNCaP (mutant AR positive and ERG negative), as well as in LAPC4 cells that are AR (wild type) positive and ERG negative.
(§2) Inhibition of ERG protein expression by the test compounds were determined by Western blot analysis. The ERG specific monoclonal antibody CPDR ERG-MAb was used as the primary antibody. In brief, Western blot was performed by running a fixed amount of total protein extracted from cell lysates of the treated cells using (4-12% Bis-Tris) gel by electrophoresis, followed by transfer to membrane and incubation with primary antibody and continued with HRP-conjugated secondary antibody. Cultured cells were treated at specific dosages with each of the tested ERG inhibitors. Following incubation of the treated cells for an indicated time period, cells were lysed using Mammalian Protein Extraction Reagent (M-PER; Pierce, Rockford, Ill.) containing a protease inhibitor cocktail and phosphatase inhibitor cocktails I & III (Sigma, St Louis, Mo.). […]

[2] = molecular target: T1, RIOK2 protein (Homo sapiens, UniProt Q9BVS4); assay: Inhibition of RIOK2 protein in VCaP cells (Western blot); format: cell-based; set-up: host or cells: VCaP; details: 0.1, 0.2, 0.4, 0.6, 0.8 and 1 μM; FIG. 14, 17
[3] = molecular target: T1, RIOK2 protein; assay: Inhibition of RIOK2 protein in HUVEC normal endothelial cells (Western blot); format: cell-based; set-up: ERG and RIOK2 proteins in endogenous ERG expressing normal endothelial cells (HUVEC); host or cells: HUVEC; details: 0.25 μM and 1 μM, FIG. 10
[4] = tested on: COLO320 cells; assay: COLO320 cell growth; format: cell-based; details: 0.25 μM and 1 μM, FIG. 9
Protocol: (§3) Approximately 48 hours following plating of cells, the appropriate test compound is added to each well of the tissue culture dish at a predetermined concentration. The medium was replenished every 24 hours with fresh growth medium containing the same concentration of the same test compound for indicated period of the cell growth inhibition assay. Percent cell growth inhibition was calculated using a hemocytometer for estimating cell density in each of the test wells of the tissue culture dish and trypan blue dye exclusion microscopy and photography to estimate the fraction of viable cells in each test well.

[5] = tested on: HUVEC; assay: HUVEC cell growth; format: cell-based, human; details: 0.25 μM and 1 μM, FIG. 11
Protocol: as §3

[6] = tested on: VCaP cells; assay: VCaP cell growth inhibition; format: cell-based; details: for IC50: metastatic prostate cancer, TMPRSS2-ERG fusion, N/D = assay performed, inhibition not detected at the tested levels
Protocol: as §3
To investigate whether the azophenol compounds selectively arrested the growth of ERG positive cancer cells (VCaP), VCaP cells were cultured to achieve cells in logarithmic growth and these cells were then plated in 6 well tissue culture dishes in duplicates at a cell density of 0.2×10^6 cells per well. The plated cells were exposed to 0, 0.2, 0.4, 0.6, 0.8 and 1 μM concentrations of each compound for a period of 8 days. At the end of time period, cells were recovered from the test plate, washed, trypsinized and the cell density of viable cells were determined with trypan blue dye staining method and automated cell counter Bio-Rad TC10. The IC50 of cell growth inhibition of each compound was determined by trypsinizing the cells at the end of the experiment and counting the cells by using the automated cell counter (Bio-Rad TC10 automated cell counter). The average cell numbers of each concentration were used to calculate the IC50 of each compound with the GraphPad Prism 6 software.

[7] = tested on: LAPC-4 cells; assay: LAPC-4 cell growth; format: cell-based; details: 0.25 μM and 1 μM, FIG. 7
Protocol: as §3

[8] = tested on: LNCaP cells; assay: LNCaP cell growth; format: cell-based; details: 0.25 μM and 1 μM, FIG. 5
Protocol: as §3

[9] = tested on: PSA; assay: Inhibition of endogenous PSA protein in VCaP cells (Western blot); format: cell-based; details: 0.25 μM and 1 μM, FIG. 2
Protocol: as §2, with “Mo.). Cell lysates containing 50 μg of total protein were electrophoresed through 4-12% Bis-Tris Gel (Invitrogen, Carlsbad, Calif.) and the cellular proteins were transferred to PVDF membrane (Invitrogen, Carlsbad, Calif.). Membranes were incubated at 4° C. for 12 hours with primary antibodies for AR, PSA, GAPDH, α-Tubulin, apoptosis markers and cell cycle regulators.” for “Mo.).”

[10] = molecular target: T2, ERG protein (Homo sapiens, UniProt P11308); assay: Inhibition of endogenous ERG protein in COLO320 cells (Western blot); format: cell-based; set-up: host or cells: COLO320; details: 0.25 μM and 1 μM, FIG. 8
T2 sequence (P11308 1-479): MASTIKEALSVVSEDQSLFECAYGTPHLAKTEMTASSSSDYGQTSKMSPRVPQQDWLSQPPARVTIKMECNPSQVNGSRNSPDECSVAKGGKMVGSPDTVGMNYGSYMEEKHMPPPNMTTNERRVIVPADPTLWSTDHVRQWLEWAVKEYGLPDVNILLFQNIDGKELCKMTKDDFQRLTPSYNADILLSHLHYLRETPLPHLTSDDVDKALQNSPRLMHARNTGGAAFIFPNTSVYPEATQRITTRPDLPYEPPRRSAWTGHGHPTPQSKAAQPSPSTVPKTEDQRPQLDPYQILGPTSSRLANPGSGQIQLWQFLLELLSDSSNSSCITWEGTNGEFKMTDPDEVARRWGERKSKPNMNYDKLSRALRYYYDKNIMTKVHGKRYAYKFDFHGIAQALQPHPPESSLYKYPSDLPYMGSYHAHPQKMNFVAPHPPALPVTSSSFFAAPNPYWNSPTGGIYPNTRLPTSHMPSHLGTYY
Protocol: as §2, with “Mo.). Cell lysates containing 50 μg of total protein were electrophoresed through 4-12% Bis-Tris Gel (Invitrogen, Carlsbad, Calif.) and the cellular proteins were transferred to PVDF membrane (Invitrogen, Carlsbad, Calif.). Membranes were incubated at 4° C. for 12 hours with primary antibodies for AR, PSA, GAPDH, α-Tubulin, apoptosis markers and cell cycle regulators.” for “Mo.).”

[11] = molecular target: T2, ERG protein; assay: Inhibition of ERG protein in HUVEC normal endothelial cells (Western blot); format: cell-based; details: 0.25 μM and 1 μM, FIG. 10
Protocol: as §2, with “Mo.). Cell lysates containing 50 μg of total protein were electrophoresed through 4-12% Bis-Tris Gel (Invitrogen, Carlsbad, Calif.) and the cellular proteins were transferred to PVDF membrane (Invitrogen, Carlsbad, Calif.). Membranes were incubated at 4° C. for 12 hours with primary antibodies for AR, PSA, GAPDH, α-Tubulin, apoptosis markers and cell cycle regulators.” for “Mo.).”

[12] = molecular target: T3, ERG protein (Homo sapiens, UniProt P11308); assay: Inhibition of ERG protein in VCaP cells (Western blot); format: cell-based; details: for IC50: metastatic prostate cancer, TMPRSS2-ERG fusion, N/D = assay performed, inhibition not detected at the tested levels
T3 construct: host or cells: VCaP
T3 sequence (P11308 33-479 limits assumed): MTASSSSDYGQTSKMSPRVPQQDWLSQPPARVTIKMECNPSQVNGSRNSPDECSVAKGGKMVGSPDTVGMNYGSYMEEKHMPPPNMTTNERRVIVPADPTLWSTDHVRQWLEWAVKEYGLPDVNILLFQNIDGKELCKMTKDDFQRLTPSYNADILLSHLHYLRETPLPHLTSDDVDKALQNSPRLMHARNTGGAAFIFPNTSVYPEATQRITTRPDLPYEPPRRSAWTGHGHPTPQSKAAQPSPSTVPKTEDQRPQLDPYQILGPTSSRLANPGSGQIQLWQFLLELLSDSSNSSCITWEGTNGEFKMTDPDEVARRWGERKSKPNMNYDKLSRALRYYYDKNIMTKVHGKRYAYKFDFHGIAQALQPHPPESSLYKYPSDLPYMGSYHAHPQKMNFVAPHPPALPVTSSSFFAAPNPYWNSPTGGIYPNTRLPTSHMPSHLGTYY
Protocol: The TMPRSS2-ERG fusion positive prostate cancer cell line, VCaP (ATCC), was used to identify the test compound inhibitors of ERG expression. Cells were grown in medium using conditions prescribed by the vendor. VCaP cells in logarithmic growth were seeded in a tissue culture dish at a cell density of 2×10^6 cells per plate. Following 48 hours incubation at 37° C., cells were exposed for a period of 48 hours with 0, 0.05, 0.25 and 0.5 μM concentrations of each test azophenol compound. The inhibition of ERG expression was evaluated by an In-cell Western blot assay (LI-COR Biosciences, Lincoln, Nebr.) using the ERG specific CPDR ERG-MAb as further described below.
(§4) Inhibition of ERG protein expression by the test compounds were determined by Western blot analysis. The ERG specific monoclonal antibody CPDR ERG-MAb was used as the primary antibody. In brief, Western blot was performed by running a fixed amount of total protein extracted from cell lysates of the treated cells using (4-12% Bis-Tris) gel by electrophoresis, followed by transfer to membrane and incubation with primary antibody and continued with HRP-conjugated secondary antibody. Cultured cells were treated at specific dosages with each of the tested ERG inhibitors. Following incubation of the treated cells for an indicated time period, cells were lysed using Mammalian Protein Extraction Reagent (M-PER; Pierce, Rockford, Ill.) containing a protease inhibitor cocktail and phosphatase inhibitor cocktails I & III (Sigma, St Louis, Mo.). Cell lysates containing 50 μg of total protein were electrophoresed through 4-12% Bis-Tris Gel (Invitrogen, Carlsbad, Calif.) and the cellular proteins were transferred to PVDF membrane (Invitrogen, Carlsbad, Calif.). Membranes were incubated at 4° C. for 12 hours with primary antibodies for AR, PSA, GAPDH, α-Tubulin, apoptosis markers and cell cycle regulators. Following exposure to primary antibodies, the membranes were washed with buffer (3×, 5 minutes each at room temperature) followed by incubation with relevant secondary antibodies for 1 hour at 24° C. Finally, the membranes were washed with buffer and developed using the ECL Western blot detection reagent (GE Health Care, Buckinghamshire, UK). The ERG protein expression of the test azophenol compounds were normalized with GAPDH.
In brief, ERG positive VCaP cells in loganthmic growth phase were plated in 10 cm tissue culture dish at a cell density of 2×10^6 cells per dish. The plated cells were treated with 0, 0.2, 0.4, 0.6, 0.8 and 1 μM concentrations of each azophenol compound for a period of 48 hours. Cells from each dish were then processed for Western blot analysis and alterations in the expression of ERG protein were monitored. Both ERG and GAPDH protein band were quantified from each concentration using Image J (NIH) and ERG band density was normalized with corresponding GAPDH protein control. Relative density of ERG in each concentration was calculated and with Graphpad Prism 6 software, the IC50 of each compound was calculated.

[13] = tested on: RWPE-1 cells; assay: RWPE-1 cell growth; format: cell-based; details: 0.25 μM and 1 μM, FIG. 12
Protocol: as §3

[14] = molecular target: T1, RIOK2 protein; assay: Inhibition of endogenous RIOK2 protein in COLO320 cells (Western blot); format: cell-based; details: 0.25 μM and 1 μM, FIG. 8
[15] = tested on: BPH-1 cells; assay: BPH-1 cell growth; format: cell-based; details: 0.25 μM and 1 μM, FIG. 12
Protocol: as §3

[16] = tested on: PSA; assay: Inhibition of endogenous PSA protein in LNCaP cells (Western blot); format: cell-based; details: ERG negative LNCaP; 0.25 μM and 1 μM; FIG. 4
Protocol: as §1, §2

[17] = tested on: AR; assay: Inhibition of endogenous AR protein in LAPC-4 cells (Western blot); format: cell-based; details: ERG negative LAPC-4; 0.25 μM and 1 μM; FIG. 6
Protocol: as §1, §2

[18] = tested on: AR; assay: Inhibition of endogenous AR protein in VCaP cells (Western blot); format: cell-based; details: 0.25 μM and 1 μM, FIG. 2
Protocol: as §4, with “Following exposure to primary antibodies, the membranes were washed with buffer (3×, 5 minutes each at room temperature) followed by incubation with relevant secondary antibodies for 1 hour at 24° C. Finally, the membranes were washed with buffer and developed using the ECL Western blot detection reagent (GE Health Care, Buckinghamshire, UK). The ERG protein expression of the test azophenol compounds were normalized with GAPDH.” left out

[19] = 0.2, 0.4, 0.6, 0.8 and 1 μM, FIG. 19-22, 24
[20] = 0.3, 0.6, 1.0, 3.0 and 10.0 μM, FIG. 25-30

T1 sequence (Q9BVS4 whole entry): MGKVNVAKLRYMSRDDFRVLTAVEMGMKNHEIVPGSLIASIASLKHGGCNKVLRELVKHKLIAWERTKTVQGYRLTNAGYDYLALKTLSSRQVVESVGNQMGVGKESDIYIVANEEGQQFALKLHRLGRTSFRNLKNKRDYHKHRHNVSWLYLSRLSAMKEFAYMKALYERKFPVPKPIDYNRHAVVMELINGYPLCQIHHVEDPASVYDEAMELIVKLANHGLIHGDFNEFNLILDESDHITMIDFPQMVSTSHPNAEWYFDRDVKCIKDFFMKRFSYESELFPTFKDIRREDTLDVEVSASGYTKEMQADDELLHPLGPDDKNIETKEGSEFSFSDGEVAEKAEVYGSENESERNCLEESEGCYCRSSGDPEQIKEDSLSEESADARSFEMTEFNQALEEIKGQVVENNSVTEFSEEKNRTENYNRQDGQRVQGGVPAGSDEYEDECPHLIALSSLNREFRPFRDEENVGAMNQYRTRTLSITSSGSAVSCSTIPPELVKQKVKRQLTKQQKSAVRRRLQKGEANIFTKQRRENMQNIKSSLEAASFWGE

SMILES: Cc1ccc(O)c(N=Nc2nccs2)c1 [Compound 2]
inhibition of endogenous AR protein [1]: lack of inhibition
inhibition of RIOK2 protein in VCaP cells [2]: inhibition
inhibition of RIOK2 protein [3]: lack of inhibition
inhibition of growth of ERG harboring colon cancer cells [4]: inhibition
growth of ERG harboring normal endothelial cells [5]: do not affect the growth
inhibition of VCaP cell growth ([6]; 0.1, 0.2, 0.4, 0.6, 0.8 and 1 μM, FIG. 15, 18): inhibition
inhibition of the growth of ERG harboring prostate cancer cells ([6]; VCaP, 0.25 μM and 1 μM, FIG. 3): inhibition
growth of ERG negative prostate cancer cells [7]: do not affect the growth
growth of ERG negative prostate cancer cells [8]: do not affect the growth
inhibition of endogenous PSA protein [9]: inhibition
inhibition of endogenous ERG protein [10]: inhibition
inhibition of ERG protein [11]: lack of inhibition
inhibition of ERG protein in VCaP cells ([12]; 0.1, 0.2, 0.4, 0.6, 0.8 and 1 μM, FIG. 13, 16): inhibition
inhibition of endogenous ERG protein ([12]; VCaP, 0.25 μM and 1 μM, FIG. 2): inhibition
growth of ERG negative prostate-derived immortalized cells [13]: do not affect the growth
inhibition of endogenous RIOK2 protein [14]: inhibition
growth of ERG negative prostate-derived immortalized cells [15]: do not affect the growth
inhibition of endogenous PSA protein [16]: lack of inhibition
inhibition of endogenous AR protein [17]: do not inhibit
inhibition of endogenous AR protein [18]: inhibition

IC50 ([6]; VCaP): 557 nM
IC50 ([12]; VCaP): 542 nM
SMILES: Oc1ccc(N=Nc2ccccn2)c(O)c1 [Compound 5]
inhibition of VCaP cell growth [6, 19]: inhibition
inhibition of VCaP cell growth [6, 20]: inhibition

IC50 ([6]; VCaP): 73.9 nM
IC50 ([12]; VCaP): 273 nM
SMILES: CN(C)c1ccc(N=Nc2ccccn2)c(O)c1 [Compound 6]
inhibition of VCaP cell growth ([6]; 0.02, 0.05, 0.10, 0.20 and 0.40 μM, FIG. 23): inhibition
inhibition of VCaP cell growth [6, 19]: inhibition

IC50 ([6]; VCaP): 1120 nM
IC50 ([12]; VCaP): 1860 nM
SMILES: Cc1cc(O)cc(O)c1N=Nc1nccs1 [Compound 4]
inhibition of VCaP cell growth [6, 20]: inhibition
